Assay results as given in the NIST ThermoML archive (doi:10.1016/j.jct.2012.06.010).

Columns and labels:
[1] = molar heat capacity at constant pressure; details: 101.33 kPa, Small sample (50 mg) DSC
[2] = DTA
[3] = Molar enthalpy of transition or fusion; details: DSC

O=C(O)c1cccnc1 [3-carboxylpyridine]
[1]
Details	molar heat capacity at constant pressure [J/K/mol]
296.01 K, Crystal 2	139.9
298.06 K, Crystal 2	141.2
303.2 K, Crystal 2	144.2
308.34 K, Crystal 2	147
313.48 K, Crystal 2	149.4
318.62 K, Crystal 2	152.3
323.76 K, Crystal 2	154.8
328.9 K, Crystal 2	156.5
334.04 K, Crystal 2	158.2
339.18 K, Crystal 2	159.8
343.24 K, Crystal 2	160.4
348.38 K, Crystal 2	163.3
353.52 K, Crystal 2	165.9
358.66 K, Crystal 2	167.9
363.8 K, Crystal 2	170
368.94 K, Crystal 2	171.5
374.08 K, Crystal 2	173.2
379.22 K, Crystal 2	175.4
384.37 K, Crystal 2	177.6
389.51 K, Crystal 2	179.4
394.65 K, Crystal 2	181.2
399.79 K, Crystal 2	183.5
404.93 K, Crystal 2	185.8
410.07 K, Crystal 2	189.4
415.21 K, Crystal 2	194.3
420.35 K, Crystal 2	198
425.49 K, Crystal 2	201.7
430.63 K, Crystal 2	205.3
435.77 K, Crystal 2	212.1
440.91 K, Crystal 2	219.1
448.1 K, Crystal 2	231.3
449.13 K, Crystal 2	240.6
450.16 K, Crystal 2	254.7
451.19 K, Crystal 2	273.6
452.22 K, Crystal 2	292.5
453.24 K, Crystal 2	334.7
454.27 K, Crystal 2	418.6
455.3 K, Crystal 2	440.3
456.33 K, Crystal 1	382.6
457.36 K, Crystal 1	326.3
458.38 K, Crystal 1	297.2
459.41 K, Crystal 1	280.2
460.44 K, Crystal 1	263.1
461.47 K, Crystal 1	251.7
462.5 K, Crystal 1	245.7
463.52 K, Crystal 1	239.8
464.55 K, Crystal 1	235.7
465.58 K, Crystal 1	233.6
466.61 K, Crystal 1	231.4
467.64 K, Crystal 1	229.5
468.66 K, Crystal 1	227.8
469.69 K, Crystal 1	226.1
479.97 K, Crystal 1	231.6
482.03 K, Crystal 1	232.2
487.17 K, Crystal 1	233.6
492.31 K, Crystal 1	235.1
497.45 K, Crystal 1	237.2
500.53 K, Crystal 1	245.9
503.62 K, Crystal 1	254.7
504.65 K, Crystal 1	280.5
505.67 K, Crystal 1	306.3
506.7 K, Crystal 1	422.7
507.73 K, Crystal 1	1073.5
508.76 K, Crystal 1	7052.2
510.81 K, Liquid	1773.6
511.84 K, Liquid	309.8
512.87 K, Liquid	307.2
515.95 K, Liquid	307.4
518.01 K, Liquid	308.6
523.15 K, Liquid	311.5
528.29 K, Liquid	314.4
531.37 K, Liquid	316.2

Details	Molar enthalpy of transition or fusion, [3] [kcal/mol]	Triple point temperature, [2] [K]
Crystal 1	6.74	509.91
Crystal 2	0.215	455
